Values of other authors as cited in PMC8847371 (Nature Communications, 2022).

Experiments:
[1] = test system: COVID-19; set-up: method as in recent press release; settings: early administration, high risk patients with mild to moderate symptoms; ref recent press release; cited from earlier work
[2] = test system: SARS-CoV-2 VoC; settings: cited from earlier work
[3] = test system: SARS-CoV-2; settings: cited from earlier work
[4] = test system: COVID-19; set-up: method as in MOVe-OUT trial (NCT04575597); settings: phase 3, high-risk patients with mild to moderate COVID-19; ref MOVe-OUT trial (NCT04575597); cited from earlier work

SMILES	reduction of likelihood of hospitalization [1] [%]	in vitro potency against the four VOC [2]	efficacy in the SARS-CoV-2 hamster infection model [3]	risk of hospitalization or death [4]
CCC(CC)COC(=O)[C@H](C)N[P@](=O)(OC[C@H]1O[C@@](C#N)(c2ccc3c(N)ncnn23)[C@H](O)[C@@H]1O)Oc1ccccc1 [Veklury]	87			
CC(C)C(=O)OC[C@H]1O[C@@H](n2ccc(NO)nc2=O)[C@H](O)[C@@H]1O [Molnupiravir]		equipotent	effective	significant reduction
